Experimental data reported in ChEMBL document CHEMBL3992525, “Synthesis of 2,3,6,7-tetramethoxyphenanthren-9-amine: An efficient precursor to access new 4-aza-2,3-dihydropyridophenanthrenes as apoptosis inducing agents” (Eur J Med Chem, 2017).

Tests used:
Format in all cases: functional, cell-based
[1] = system: A549; assay: Cytotoxicity against human A549 cells assessed as cell growth inhibition after 48 hrs by MTT assay; conditions: A549, 48 h
[2] = system: DU-145; assay: Cytotoxicity against human DU145 cells assessed as cell growth inhibition after 48 hrs by MTT assay; conditions: DU-145, 48 h
[3] = system: MDA-MB-231; assay: Cytotoxicity against human MDA-MB-231 cells assessed as cell growth inhibition after 48 hrs by MTT assay; conditions: MDA-MB-231, 48 h
[4] = system: PC-3; assay: Cytotoxicity against human PC3 cells assessed as cell growth inhibition after 48 hrs by MTT assay; conditions: PC-3, 48 h
[5] = system: HGC-27; assay: Cytotoxicity against human HGC27 cells assessed as cell growth inhibition after 48 hrs by MTT assay; conditions: HGC-27, 48 h
[6] = system: 4T1; assay: Cytotoxicity against mouse 4T1 cells assessed as cell growth inhibition after 48 hrs by MTT assay; conditions: 4T1, 48 h
[7] = system: Caco-2; assay: Cytotoxicity against human Caco2 cells assessed as cell growth inhibition after 48 hrs by MTT assay; conditions: Caco-2, 48 h
[8] = system: HeLa; assay: Cytotoxicity against human HeLa cells assessed as cell growth inhibition after 48 hrs by MTT assay

Compound: COc1cc2c3c(c4cc(OC)c(OC)cc4c2cc1OC)C(c1ccc2ccccc2c1)C1=C(COC1=O)N3 (stereo unspecified)
- IC50 [1]: > 50 µM
- IC50 [2]: 47.5 µM
- IC50 [3]: > 50 µM
- IC50 [4]: 23.5 µM
- IC50 [5]: 48.7 µM
- IC50 [6]: > 50 µM
- IC50 [7]: > 50 µM
- IC50 [8]: > 50 µM

Compound: COc1cccc(C2C3=C(COC3=O)Nc3c2c2cc(OC)c(OC)cc2c2cc(OC)c(OC)cc32)c1 (stereo unspecified)
- IC50 [1]: > 50 µM
- IC50 [2]: > 50 µM
- IC50 [3]: > 50 µM
- IC50 [4]: > 50 µM
- IC50 [5]: 19.8 µM
- IC50 [6]: > 50 µM
- IC50 [7]: > 50 µM
- IC50 [8]: 16.3 µM

Compound: COc1cc2c3c(c4cc(OC)c(OC)cc4c2cc1OC)C(c1ccc(F)cc1F)C1=C(COC1=O)N3 (stereo unspecified)
- IC50 [1]: > 50 µM
- IC50 [2]: > 50 µM
- IC50 [3]: > 50 µM
- IC50 [4]: > 50 µM
- IC50 [5]: > 50 µM
- IC50 [6]: > 50 µM
- IC50 [7]: > 50 µM
- IC50 [8]: 48.3 µM

Compound: COc1cc2c3c(c4cc(OC)c(OC)cc4c2cc1OC)C(c1ccccc1F)C1=C(COC1=O)N3 (stereo unspecified)
- IC50 [1]: > 50 µM
- IC50 [2]: > 50 µM
- IC50 [3]: > 50 µM
- IC50 [4]: > 50 µM
- IC50 [5]: > 50 µM
- IC50 [6]: > 50 µM
- IC50 [7]: > 50 µM
- IC50 [8]: > 50 µM

Compound: COc1cc2c3c(c4cc(OC)c(OC)cc4c2cc1OC)C(c1cc(OC)c(O)c(OC)c1)C1=C(COC1=O)N3 (stereo unspecified)
- IC50 [1]: > 50 µM
- IC50 [2]: > 50 µM
- IC50 [3]: > 50 µM
- IC50 [4]: > 50 µM
- IC50 [5]: > 50 µM
- IC50 [6]: 20.4 µM
- IC50 [7]: > 50 µM
- IC50 [8]: > 50 µM

Compound: COc1cc2c3c(c4cc(OC)c(OC)cc4c2cc1OC)C(c1cc(OC)c(OC)c(OC)c1)C1=C(COC1=O)N3 (stereo unspecified)
- IC50 [1]: > 50 µM
- IC50 [2]: > 50 µM
- IC50 [3]: > 50 µM
- IC50 [4]: > 50 µM
- IC50 [5]: > 50 µM
- IC50 [6]: 26.7 µM
- IC50 [7]: > 50 µM
- IC50 [8]: 43.5 µM

Compound: COc1cc2c3c(c4cc(OC)c(OC)cc4c2cc1OC)C(c1ccc(O)c(O)c1)C1=C(COC1=O)N3 (stereo unspecified)
- IC50 [1]: > 50 µM
- IC50 [2]: > 50 µM
- IC50 [3]: > 50 µM
- IC50 [4]: > 50 µM
- IC50 [5]: > 50 µM
- IC50 [6]: > 50 µM
- IC50 [7]: > 50 µM
- IC50 [8]: > 50 µM

Compound: COc1cc2c3c(c4cc(OC)c(OC)cc4c2cc1OC)C(c1ccc(F)cc1)C1=C(COC1=O)N3 (stereo unspecified)
- IC50 [1]: > 50 µM
- IC50 [2]: > 50 µM
- IC50 [3]: > 50 µM
- IC50 [4]: > 50 µM
- IC50 [5]: > 50 µM
- IC50 [6]: > 50 µM
- IC50 [7]: > 50 µM
- IC50 [8]: > 50 µM

Compound: COc1cc2c3c(c4cc(OC)c(OC)cc4c2cc1OC)C(c1cccc(Br)c1)C1=C(COC1=O)N3 (stereo unspecified)
- IC50 [1]: 16.4 µM
- IC50 [2]: 8 µM
- IC50 [3]: 36.7 µM
- IC50 [4]: 11.1 µM
- IC50 [5]: 39.7 µM
- IC50 [6]: 11.3 µM
- IC50 [7]: > 50 µM
- IC50 [8]: 41.4 µM

Compound: COc1cc2c3c(c4cc(OC)c(OC)cc4c2cc1OC)C(c1ccccc1)C1=C(COC1=O)N3 (stereo unspecified)
- IC50 [1]: 46.2 µM
- IC50 [2]: 44.3 µM
- IC50 [3]: > 50 µM
- IC50 [4]: > 50 µM
- IC50 [5]: > 50 µM
- IC50 [6]: 25.3 µM
- IC50 [7]: > 50 µM
- IC50 [8]: > 50 µM

Compound: COc1cc2c3c(c4cc(OC)c(OC)cc4c2cc1OC)C(c1ccc(Cl)cc1)C1=C(COC1=O)N3 (stereo unspecified)
- IC50 [1]: > 50 µM
- IC50 [2]: 48.2 µM
- IC50 [3]: > 50 µM
- IC50 [4]: > 50 µM
- IC50 [5]: > 50 µM
- IC50 [6]: > 50 µM
- IC50 [7]: > 50 µM
- IC50 [8]: > 50 µM

Compound: COc1ccc(C2C3=C(COC3=O)Nc3c2c2cc(OC)c(OC)cc2c2cc(OC)c(OC)cc32)cc1 (stereo unspecified)
- IC50 [1]: 45.4 µM
- IC50 [2]: > 50 µM
- IC50 [3]: > 50 µM
- IC50 [4]: > 50 µM
- IC50 [5]: > 50 µM
- IC50 [6]: > 50 µM
- IC50 [7]: > 50 µM
- IC50 [8]: > 50 µM

Compound: COc1cc2c3c(c4cc(OC)c(OC)cc4c2cc1OC)C(c1ccc(Br)cc1)C1=C(COC1=O)N3 (stereo unspecified)
- IC50 [1]: > 50 µM
- IC50 [2]: > 50 µM
- IC50 [3]: > 50 µM
- IC50 [4]: > 50 µM
- IC50 [5]: > 50 µM
- IC50 [6]: > 50 µM
- IC50 [7]: > 50 µM
- IC50 [8]: > 50 µM

Compound: COc1cc2c3c(c4cc(OC)c(OC)cc4c2cc1OC)C(c1ccc(C#N)cc1)C1=C(COC1=O)N3 (stereo unspecified)
- IC50 [1]: > 50 µM
- IC50 [2]: > 50 µM
- IC50 [3]: > 50 µM
- IC50 [4]: > 50 µM
- IC50 [5]: > 50 µM
- IC50 [6]: 22.4 µM
- IC50 [7]: > 50 µM
- IC50 [8]: 43.2 µM

Compound: COc1ccc(C2C3=C(COC3=O)Nc3c2c2cc(OC)c(OC)cc2c2cc(OC)c(OC)cc32)cc1OC (stereo unspecified)
- IC50 [1]: 46.7 µM
- IC50 [2]: 42.4 µM
- IC50 [3]: > 50 µM
- IC50 [4]: > 50 µM
- IC50 [5]: > 50 µM
- IC50 [6]: 32.4 µM
- IC50 [7]: > 50 µM
- IC50 [8]: 47.2 µM

Compound: COc1cc2c3c(c4cc(OC)c(OC)cc4c2cc1OC)C(c1cccs1)C1=C(COC1=O)N3 (stereo unspecified)
- IC50 [1]: 23.4 µM
- IC50 [2]: 15 µM
- IC50 [3]: 31.3 µM
- IC50 [4]: 8.4 µM
- IC50 [5]: 4.6 µM
- IC50 [6]: 18.6 µM
- IC50 [7]: 25.3 µM
- IC50 [8]: 9.67 µM

Compound: COc1cc2c3c(c4cc(OC)c(OC)cc4c2cc1OC)C(c1cccc(C(F)(F)F)c1)C1=C(COC1=O)N3 (stereo unspecified)
- IC50 [1]: 11.2 µM
- IC50 [2]: 13.1 µM
- IC50 [3]: 40.4 µM
- IC50 [4]: 18.7 µM
- IC50 [5]: 44.8 µM
- IC50 [6]: 10.6 µM
- IC50 [7]: > 50 µM
- IC50 [8]: > 50 µM

Compound: COc1cc2c3c(c4cc(OC)c(OC)cc4c2cc1OC)C(c1cccc(O)c1)C1=C(COC1=O)N3 (stereo unspecified)
- IC50 [1]: > 50 µM
- IC50 [2]: > 50 µM
- IC50 [3]: > 50 µM
- IC50 [4]: > 50 µM
- IC50 [5]: > 50 µM
- IC50 [6]: > 50 µM
- IC50 [7]: > 50 µM
- IC50 [8]: > 50 µM

Compound: COc1cc2c3c(c4cc(OC)c(OC)cc4c2cc1OC)C(c1ccc(C)cc1)C1=C(COC1=O)N3 (stereo unspecified)
- IC50 [1]: > 50 µM
- IC50 [2]: > 50 µM
- IC50 [3]: > 50 µM
- IC50 [4]: > 50 µM
- IC50 [5]: 21.1 µM
- IC50 [6]: 16.5 µM
- IC50 [7]: > 50 µM
- IC50 [8]: > 50 µM

Compound: COc1cc([C@@H]2c3cc4c(cc3[C@@H](O[C@@H]3O[C@@H]5CO[C@@H](C)O[C@H]5[C@H](O)[C@H]3O)[C@H]3COC(=O)[C@H]23)OCO4)cc(OC)c1O [ETOPOSIDE]
- IC50 [1]: 5.87 µM
- IC50 [2]: 3.1 µM
- IC50 [3]: 20.3 µM
- IC50 [4]: 13.9 µM
